Patent publication US10364245B2 (CHIESI FARMACEUTICI S.p.A., priority 2017, dated 2019)
pIC50: −log10 of the molar value. Counter-ions that a name gives are not always drawn.

Legend:
[1] = test system: Peripheral Blood Mononuclear Cells (PBMCs), TNFα release; assay: LPS-stimulated PBMC TNFα release assay; assay type: cell-based; conditions: human PBMC, LPS (10 ng/ml), 18 h, compound 1 h before LPS; read-out: LPS-stimulated PBMC TNFα release inhibition
How it was run: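 Human PBMCs from healthy donors, serum-starved 3 h, then pre-incubated 1 h at 37 °C with compound in 1% FBS medium before LPS (10 ng/ml) for 18 h. Supernatant TNFα measured by MSD; IC50 from dose-response as % inhibition of control, at least three experiments.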

[2] = target: T1, p38 alpha (Homo sapiens, UniProt Q16539); assay: P38 alpha enzyme inhibition assay (Alphascreen kinase activity assay); assay type: biochemical; conditions: 100 pM p38 alpha, 2 hours preincubation at 25° C., 250 μM ATP, ATF-2 fusion protein; read-out: p38α inhibition
T1 construct: purchased Invitrogen PV3304
T1 sequence (Q16539 whole entry, the tested form may be a part): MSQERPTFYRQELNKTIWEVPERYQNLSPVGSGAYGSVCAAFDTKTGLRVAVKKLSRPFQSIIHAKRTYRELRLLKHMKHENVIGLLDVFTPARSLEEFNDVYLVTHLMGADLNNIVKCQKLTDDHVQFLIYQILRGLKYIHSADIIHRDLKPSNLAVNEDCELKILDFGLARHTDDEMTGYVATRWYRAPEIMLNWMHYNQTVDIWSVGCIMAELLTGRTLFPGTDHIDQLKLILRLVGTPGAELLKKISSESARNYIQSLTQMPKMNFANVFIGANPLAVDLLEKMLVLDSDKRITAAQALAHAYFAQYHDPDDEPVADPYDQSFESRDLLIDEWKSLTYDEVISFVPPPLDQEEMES
How it was run: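 100 pM p38 alpha preincubated 2 h at 25 °C with compound and 0.3 μg/ml ATF-2 fusion substrate (HEPES pH 7.5, MgCl2, 1% DMSO). Reaction started with 250 μM ATP, run 1 h at 25 °C, stopped with EDTA; phospho-ATF2 detected by AlphaScreen luminescence. IC50 from concentration-response curves.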

| Compound | pIC50 [2] | pIC50 [1] |
| --- | --- | --- |
| COCCN(C)CCNC(=O)c1nc(NC(=O)N[C@H]2CC[C@@H](Oc3ccc4nnc(C5(C)CC5)n4c3)c3ccccc32)cc(C(C)(C)C)n1 [Example 137, 4-(tert-butyl)-N-(2-((2-methoxyethyl)(methyl)-amino)ethyl)-6-(3-((1S,4R)-4-((3-(1-methylcyclopropyl)-[1,2,4]triazolo[4,3-a]pyridin-6-yl)oxy)-1,2,3,4-tetrahydronaphthalen-1-yl)ureido)pyrimidine-2-carboxamide] | 8.00 to 9.00 | < 8.30 |
| CN1CCN(C(C)(C)c2nnc3ccc(O[C@@H]4CC[C@H](NC(=O)Nc5cc(C(C)(C)C)nc(C(=O)NCCO)n5)c5ccccc54)cn23)CC1 [Example 139, 4-(tert-butyl)-N-(2-hydroxyethyl)-6-(3-((1S,4R)-4-((3-(2-(4-methylpiperazin-1-yl)propan-2-yl)-[1,2,4]triazolo[4,3-a]pyridin-6-yl)oxy)-1,2,3,4-tetrahydronaphthalen-1-yl)ureido)pyrimidine-2-carboxamide] | 8.00 to 9.00 | < 8.30 |
| COCC(C)(C)c1nnc2ccc(O[C@@H]3CC[C@H](NC(=O)Nc4cc(C(C)(C)C)nc(C(=O)NCC5(N(C)C)CCCC5)n4)c4ccccc43)cn12 [Example 154, 4-(tert-butyl)-N-((1-(dimethylamino)cyclopentyl)methyl)-6-(3-((1S,4R)-4-((3-(1-methoxy-2-methylpropan-2-yl)-[1,2,4]triazolo[4,3-a]pyridin-6-yl)oxy)-1,2,3,4-tetrahydronaphthalen-1-yl)ureido)pyrimidine-2-carboxamide] | > 9.00 | < 8.30 |
| COCC(C)(C)c1nnc2ccc(O[C@@H]3CC[C@H](NC(=O)Nc4cc(C(C)(C)C)nc(C(=O)NCC(C)(C)N5CCN(C)CC5)n4)c4ccccc43)cn12 [Example 155, 4-(tert-butyl)-6-(3-((1S,4R)-4-((3-(1-methoxy-2-methylpropan-2-yl)-[1,2,4]triazolo[4,3-a]pyridin-6-yl)oxy)-1,2,3,4-tetrahydronaphthalen-1-yl)ureido)-N-(2-methyl-2-(4-methylpiperazin-1-yl)propyl)pyrimidine-2-carboxamide] | > 9.00 | < 8.30 |
| COCC(C)(C)c1nnc2ccc(O[C@@H]3CC[C@H](NC(=O)Nc4cc(C(C)(C)C)nc(C(=O)NCC5(N(C)C)CCC5)n4)c4ccccc43)cn12 [Example 158, 4-(tert-Butyl)-N-((1-(dimethylamino)-cyclobutyl)methyl)-6-(3-((1S,4R)-4-((3-(1-methoxy-2-methylpropan-2-yl)-[1,2,4]triazolo[4,3-a]pyridin-6-yl)oxy)-1,2,3,4-tetrahydronaphthalen-1-yl)ureido)pyrimidine-2-carboxamide formate salt] | > 9.00 | 8.30 to 9.00 |
| CN(C)C1(CNC(=O)c2nc(NC(=O)N[C@H]3CC[C@@H](Oc4ccc5nnc(C(C)(C)C)n5c4)c4ccccc43)cc(C(C)(C)C)n2)CC1 [Example 159, 4-(tert-butyl)-6-(3-((1S,4R)-4-((3-(tert-butyl)-[1,2,4]triazolo[4,3-a]pyridin-6-yl)oxy)-1,2,3,4-tetrahydronaphthalen-1-yl)ureido)-N-((1-(dimethylamino)-cyclopropyl)methyl)-pyrimidine-2-carboxamide] | 8.00 to 9.00 | < 8.30 |
| COCC(C)(C)c1nnc2ccc(O[C@@H]3CC[C@H](NC(=O)Nc4cc(C(C)(C)C)nc(C(=O)NCCN5CC(OC)C5)n4)c4ccccc43)cn12 [Example 166, 4-(tert-butyl)-6-(3-((1S,4R)-4-((3-(1-methoxy-2-methylpropan-2-yl)-[1,2,4]triazolo[4,3-a]pyridin-6-yl)oxy)-1,2,3,4-tetrahydronaphthalen-1-yl)ureido)-N-(2-(3-methoxyazetidin-1-yl)ethyl)pyrimidine-2-] | > 9.00 | < 8.30 |
| CC[C@H](C)c1nnc2ccc(O[C@@H]3CC[C@H](NC(=O)Nc4cc(C(C)(C)C)nc(C(=O)NCCN5CC(OC)C5)n4)c4ccccc43)cn12 [Example 169, 4-(tert-butyl)-6-(3-((1S,4R)-4-((3-((S)-sec-butyl)-[1,2,4]triazolo[4,3-a]pyridin-6-yl)oxy)-1,2,3,4-tetrahydronaphthalen-1-yl)ureido)-N-(2-(3-methoxyazetidin-1-yl)ethyl)pyrimidine-2-carboxamide] | > 9.00 | 8.30 to 9.00 |
| COCC(C)(C)c1nnc2ccc(O[C@@H]3CC[C@H](NC(=O)Nc4cc(C(C)(C)C)nc(C(=O)NCC(C)(C)N5CC(OC)C5)n4)c4ccccc43)cn12 [Example 171, 4-(tert-butyl)-6-(3-((1S,4R)-4-((3-(1-methoxy-2-methylpropan-2-yl)-[1,2,4]triazolo[4,3-a]pyridin-6-yl)oxy)-1,2,3,4-tetrahydronaphthalen-1-yl)ureido)-N-(2-(3-methoxyazetidin-1-yl)-2-methylpropyl)pyrimidine-2-carboxamide] | 8.00 to 9.00 | 8.30 to 9.00 |

Continued, in another order:

| pIC50 [2] | Compound | pIC50 [1] |
| --- | --- | --- |
| > 9.00 | COC1CN(CCNC(=O)c2nc(NC(=O)N[C@H]3CC[C@@H](Oc4ccc5nnc(C6(C)CC6)n5c4)c4ccccc43)cc(C(C)(C)C)n2)C1 [Example 138, 4-(tert-butyl)-N-(2-(3-methoxyazetidin-1-yl)ethyl)-6-(3-((1S,4R)-4-((3-(1-methylcyclopropyl)-[1,2,4]triazolo[4,3-a]pyridin-6-yl)oxy)-1,2,3,4-tetrahydronaphthalen-1-yl)ureido)pyrimidine-2-carboxamide] | < 8.30 |
| > 9.00 | CC(C)(C)c1cc(NC(=O)N[C@H]2CC[C@@H](Oc3ccc4nnc(C(C)(C)C)n4c3)c3ccccc32)nc(C(=O)NCCN2CCC2)n1 [Example 140, N-(2-(azetidin-1-yl)ethyl)-4-(tert-butyl)-6-(3-((1S,4R)-4-((3-(tert-butyl)-[1,2,4]triazolo[4,3-a]pyridin-6-yl)oxy)-1,2,3,4-tetrahydronaphthalen-1-yl)ureido)pyrimidine-2-carboxamide] | < 8.30 |
| > 9.00 | CCN(CC)c1nnc2ccc(O[C@@H]3CC[C@H](NC(=O)Nc4cc(C(C)(C)C)nc(C(=O)NCCN(C)C)n4)c4ccccc43)cn12 [Example 142, 4-(tert-butyl)-6-(3-((1S,4R)-4-((3-(diethylamino)-[1,2,4]triazolo[4,3-a]pyridin-6-yl)oxy)-1,2,3,4-tetrahydronaphthalen-1-yl)ureido)-N-(2-(dimethylamino)ethyl)-pyrimidine-2-carboxamide] | 8.30 to 9.00 |
| > 9.00 | CCN(CC)c1nnc2ccc(O[C@@H]3CC[C@H](NC(=O)Nc4cc(C(C)(C)C)nc(C(=O)NCC(C)(C)N(C)C)n4)c4ccccc43)cn12 [Example 143, 4-(tert-butyl)-6-(3-((1S,4R)-4-((3-(diethylamino)-[1,2,4]triazolo[4,3-a]pyridin-6-yl)oxy)-1,2,3,4-tetrahydronaphthalen-1-yl)ureido)-N-(2-(dimethylamino)-2-methylpropyl)pyrimidine-2-carboxamide] | 8.30 to 9.00 |
| > 9.00 | CN(CCO)CCNC(=O)c1nc(NC(=O)N[C@H]2CC[C@@H](Oc3ccc4nnc(C5(C)CC5)n4c3)c3ccccc32)cc(C(C)(C)C)n1 [Example 145, 4-(tert-butyl)-N-(2-((2-hydroxyethyl)(methyl)-amino)ethyl)-6-(3-((1S,4R)-4-((3-(1-methylcyclopropyl)-[1,2,4]triazolo[4,3-a]pyridin-6-yl)oxy)-1,2,3,4-tetrahydronaphthalen-1-yl)ureido)pyrimidine-2-carboxamide] | < 8.30 |
| > 9.00 | CC[C@H](C)c1nnc2ccc(O[C@@H]3CC[C@H](NC(=O)Nc4cc(C(C)(C)C)nc(C(=O)NCCN(C)CC)n4)c4ccccc43)cn12 [Example 146, 4-(tert-butyl)-6-(3-((1S,4R)-4-((3-((S)-sec-butyl)-[1,2,4]triazolo[4,3-a]pyridin-6-yl)oxy)-1,2,3,4-tetrahydronaphthalen-1-yl)ureido)-N-(2-(ethyl(methyl)amino)-ethyl)pyrimidine-2-carboxamide] | 8.30 to 9.00 |
| > 9.00 | COCC(C)(C)c1nnc2ccc(O[C@@H]3CC[C@H](NC(=O)Nc4cc(C(C)(C)C)nc(C(=O)NCC5(N(C)C)CC5)n4)c4ccccc43)cn12 [Example 149, 4-(tert-butyl)-N-((1-(dimethylamino)cyclopropyl)methyl)-6-(3-((1S,4R)-4-((3-(l-methoxy-2-methylpropan-2-yl)-[1,2,4]triazolo[4,3-a]pyridin-6-yl)oxy)-1,2,3,4-tetrahydronaphthalen-1-yl)ureido)pyrimidine-2-carboxamide] | 8.30 to 9.00 |
| > 9.00 | CN1CCN(C(C)(C)CNC(=O)c2nc(NC(=O)N[C@H]3CC[C@@H](Oc4ccc5nnc(C(C)(C)C)n5c4)c4ccccc43)cc(C(C)(C)C)n2)CC1 [Example 151, 4-(tert-butyl)-6-(3-((1S,4R)-4-((3-(tert-butyl)-[1,2,4]triazolo[4,3-a]pyridin-6-yl)oxy)-1,2,3,4-tetrahydronaphthalen-1-yl)ureido)-N-(2-methyl-2-(4-methylpiperazin-1-yl)propyl)pyrimidine-2-carboxamide] | < 8.30 |
| > 9.00 | CCN(C)C(C)(C)CNC(=O)c1nc(NC(=O)N[C@H]2CC[C@@H](Oc3ccc4nnc(C(C)(C)COC)n4c3)c3ccccc32)cc(C(C)(C)C)n1 [Example 152, 4-(tert-butyl)-N-(2-(ethyl(methyl)amino)-2-methylpropyl)-6-(3-((1S,4R)-4-((3-(1-methoxy-2-methylpropan-2-yl)-[1,2,4]triazolo[4,3-a]pyridin-6-yl)oxy)-1,2,3,4-tetrahydronaphthalen-1-yl)ureido)pyrimidine-2-carboxamide] | < 8.30 |
